Laboratory results: publication PMC11687724, “Mechanism of connexin channel inhibition by mefloquine and 2-aminoethoxydiphenyl borate” (PLOS ONE, 2024)

Experiments:
[1] = target: T1, Cx43 (Homo sapiens, UniProt P17302); assay: cryo-EM of Cx43 GJC at […] Å; gap-FRAP in HEK293F cells; assay type: binding
T1 construct: gene GJA1; Cx43 gap junction channel

[2] = target: T2, Cx32 (Homo sapiens, UniProt P08034); assay: tryptophan fluorescence quenching; cryo-EM of Cx32 GJC at […] Å; dye uptake and gap-FRAP; assay type: binding; set-up: gene GJB1; purified Cx32 (gap junction channel)
[3] = target: T2, Cx32; assay: biochemical; set-up: gene GJB1

T2 sequence (P08034 whole entry): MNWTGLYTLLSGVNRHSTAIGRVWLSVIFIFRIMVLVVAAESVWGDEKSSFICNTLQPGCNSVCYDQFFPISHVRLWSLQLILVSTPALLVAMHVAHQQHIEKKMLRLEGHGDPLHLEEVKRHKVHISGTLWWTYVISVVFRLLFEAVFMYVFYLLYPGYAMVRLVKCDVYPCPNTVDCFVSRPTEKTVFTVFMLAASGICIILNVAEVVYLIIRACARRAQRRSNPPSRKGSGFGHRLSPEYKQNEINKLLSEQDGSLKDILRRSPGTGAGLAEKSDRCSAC
T1 sequence (P17302 2-382): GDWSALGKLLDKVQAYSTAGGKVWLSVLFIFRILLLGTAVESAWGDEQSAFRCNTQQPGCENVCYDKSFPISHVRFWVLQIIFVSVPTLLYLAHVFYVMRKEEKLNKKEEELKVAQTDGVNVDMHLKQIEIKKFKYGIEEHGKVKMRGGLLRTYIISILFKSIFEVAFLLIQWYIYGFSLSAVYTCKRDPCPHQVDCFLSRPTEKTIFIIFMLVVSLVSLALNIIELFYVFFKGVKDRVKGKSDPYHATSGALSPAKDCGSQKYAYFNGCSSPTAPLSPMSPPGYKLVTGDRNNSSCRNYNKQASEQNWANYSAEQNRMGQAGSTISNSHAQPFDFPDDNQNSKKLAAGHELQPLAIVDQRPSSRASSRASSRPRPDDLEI

| Kd [2] [µM] | Kd [3] [µM] | SMILES | cryo-EM of Cx43 GJC at 3.7 Å; gap-FRAP in HEK293F cells [1] |
| --- | --- | --- | --- |
| 43.1 |  | O[C@H](c1cc(C(F)(F)F)nc2c(C(F)(F)F)cccc12)[C@@H]1CCCCN1 (racemic) [MFQ, mefloquine] | a prominent additional density corresponding to MFQ was observed within the region corresponding to site M |
|  | 1.05 | NCCOB(c1ccccc1)c1ccccc1 [2APB, 2-aminoethoxydiphenyl borate] |  |
